How the values were obtained:
[1] = system: N-Ras mutant melanoma tumor cells (MaNRAS1); assay: Growth of N-Ras mutant melanoma tumors with prebiotics with or without MEKi; assay type: in vivo, C57BL/6 mice
Method: FIG. 7A C57BL/6 mice were injected (s.c.) with NRAS^Q61K mouse melanoma cells (1×10^6) (n=10). The mice were administered with either a control diet alone, or one supplemented with mucin (3%) in drinking water or inulin (15%) in chow starting 14 days prior to tumor inoculation. When tumors reached a volume of 10-20 mm^2, mice were treated with MEKi (PD325901) administered by gavage (10 mg/kg, daily), alone or in combination with inulin or mucin, as indicated. Tumor volume was assessed every 4 days. […] Data are representative of two independent experiments. Graphs show the mean±s.e.m. *P<0.05, **P<0.005, ***P<0.001, ****P<0.0001 by two-way ANOVA with Tukey's correction (A) or one-way ANOVA with Tukey's correction (B-D).
Animals and tumor models. […] Male 6-8-week-old mice were used for all experiments. […] All mice were fed an autoclaved chow diet ad libitum (LabDiet 5K67, Purina Foods). […] Mouse selection for experiments was not formally randomized or blinded. For tumor growth experiments, mice were injected subcutaneously (s.c.) with 1×10^6 tumor cells. Tumor size was measured twice a week for calculation of tumor volume. Tumors were weighed at the time of excision.
Mucin and inulin treatment. For mucin treatment, C57BL/6 mice were subjected to control or water supplemented with 3% mucin (Lee Biosolutions) prior to (14 days) and during tumor inoculation. Water was changed every other day. For inulin treatment, mice were received a diet (TD. 94048, AIN-93M, Purified Diet, ENVIGO) enriched with long-chain inulin by substituting all of sucrose and 5% of corn starch in the control diet or a modified diet (TD. 160256, Modified AIN-93M, Diet w 15% inulin, ENVIGO) prior to (14 days) and during tumor inoculation. Diets were changed 2 times a week.
Experiments were conducted to determine whether prebiotics impacted the effectiveness of MEK inhibitor (MEKi) treatment on tumor growth control and treatment resistance.

CD8+ T cells = assay: qRT-PCR of cytokine and chemokine mRNAs in CD8+ T cells in vitro; assay type: cell-based, mice; details: 0.05 or 0.5 mg/ml in vitro
Source text: Data are representative of two independent experiments. Graphs show the mean±s.e.m. *P<0.05, **P<0.005, ***P<0.001, ****P<0.0001 one-way ANOVA with Tukey's correction.
RNA extraction and qRT-PCR analyses. Total RNA was extracted from tumor samples individually using the RNeasy Fibrous Tissue Midi kit (QIAGEN) or cells treated as indicated using High Capacity Reverse Transcriptase kits (Invitrogen) according to the manufacturer's protocol. Purity and concentration of extracted RNA were checked and quantified by reading at 260 and 280 nm in a NanoDrop spectrophotometer (Thermo Fisher). The qRT-PCR analyses were performed using Syber Green RT-PCR kits (Invitrogen) on a Bio-Rad CFX Connect Real-Time system. Expression levels normalized to 18S or Tubb5 controls.

[2] = system: intestinal epithelial cells; assay: qRT-PCR of inflammatory mediators in intestinal epithelial cells in vivo; parameters: species or system C57BL/6 mice; details: inulin 15% in chow, naïve mice, 2 weeks
Source text: FIG. 15 illustrates effects of mucin and inulin on expression of inflammatory mediators by intestinal epithelial cells in vivo. qRT-PCR data are shown for mRNA levels of the indicated inflammatory mediators in intestinal epithelial cells from mucin or inulin-treated mice (n=4). Data are representative of two independent experiments. Graphs show the mean s.e.m. *P<0.05, **P<0.005, one-way ANOVA with Tukey's correction.
Isolation of intestinal epithelial cells. A 10 cm section of mouse small intestine was opened longitudinally, minced, washed in 150 mM NaCl containing 1 mM DTT, and then resuspended in dissociation buffer (130 mM NaCl, 10 mM EDTA, 10 mM Hepes [pH 7.4], 10% FCS, and 1 mM DTT). The sections were incubated at 37° C. for 30 min with vigorous shaking to release the epithelial cells from the lamina propria. The epithelial cell suspension was then carefully aspirated, centrifuged, and washed in ice-cold PBS.
The effect of mucin and inulin on intestinal epithelial cells was evaluated in vivo. To this end, mucin (3% in drinking water) or inulin (15% in chow) were administered to naïve C57BL/6 mice for 2 weeks. Intestinal epithelial cells were isolated from small intestine and were assessed for the level of select cytokines and chemokines that are implicated in the activation of the immune response and anti-tumor immunity.

Yumm1.5 tumors [3] = assay: Growth of Yumm1.5 melanoma tumors in prebiotic-fed mice; assay type: in vivo, C57BL/6 mice; details: mucin 3% in drinking water or inulin 15% w/w chow from 2 weeks prior to inoculation of 1×10^6 Yumm1.5 cells
Source text: (§1) FIG. 2B, Quantification of tumor-infiltrating effector (CD44hi) CD4+, CD8+ and CD45+ T cells from mice treated as in FIG. 2A (n=10). FIG. 2C, Quantification of tumor-infiltrating, IFN-g-producing CD4+ T cells from mice treated as in FIG. 2A (n=10). FIG. 2D, Quantification of tumor-infiltrating total DCs and subsets in mice treated as in FIG. 2A (n=10). FIG. 2E, MFI of MHC class I and MHC class II on DCs from the tumors of mice treated as in FIG. 2A (n=10). […] Graphs show the mean s.e.m. *P<0.05, **P<0.005, ***P<0.001,****P<0.0001 by two-way ANOVA with Tukey's correction (A) and by one-way ANOVA with Tukey's correction (B-E).

Bifidobacterium spp. = assay: Anaerobic fecal cultures with 1% prebiotic, 16S rDNA quantification; assay type: cell-based, human; details: in two of these cultures
Method: (§2) Fecal samples derived from 12 healthy human subjects were cultivated in the presence or absence of 1% prebiotic. 16S rDNA sequences corresponding to Bifidobacterium, Bacteroides and Akkermansia muciniphila were quantified. Data are representative of three independent experiments. Graphs show the mean±s.e.m. *P<0.05, **P<0.005, ***P<0.001, ****P<0.0001 by one-way ANOVA with Tukey's correction.
(§3) Anaerobic fecal cultures. […] Anaerobic cultures (9% H2, 81% N2) were grown statically for 3-4 days at 37° C. and grown to approximate saturation.
(§4) Chemically-defined medium (CDM). CDM contains 50 mM HEPES, 2.2 mM KH2PO4, 10 mM Na2HPO4, 60 mM NaHCO3, 4 mM of each amino acid, except leucine (15 mM), 10 mL ATCC, Trace Mineral Supplement. CDM contained nucleoside bases (100 mg/L), inosine, xanthine, adenine, guanine, cytosine, thymidine and uracil (400 mg/L). CDM contained choline (100 mg/L), ascorbic acid (500 mg/L), lipoic acid (2 mg/L), hemin (1.2 mg/L) and myo-inositol (400 mg/L). Resazurin (1 mg/L) was added to visually monitor dissolved oxygen. The pH of the media was adjusted to 7.4.
(§5) Fecal samples derived from 12 healthy, vegetarian human subjects were cultivated in a chemically-defined medium the presence or absence of 1% prebiotic. Anaerobic cultures (9% H2, 81% N2) were grown statically for 3-4 days at 37° C. and grown to approximate saturation.

Bacteroides spp. = assay: as above; assay type: cell-based; details: fecal cultures of 12 healthy human subjects, 3-4 days at 37° C.
Method: as §2, §3, §4, §5

gut microbiota = assay type: in vivo, C57BL/6 mice
Method: Bacterial DNA extraction and 16S library preparation. […] Mouse fecal pellets were frozen on dry ice, and stored at −80° C. Bacterial DNA was extracted using the QIAmp Fast DNA Stool Mini Kit (Qiagen). To ensure efficient cell lysis, a 5-min bead-beating step using a Mini-Beadbeater-16 was included (Biospec Products, OK, USA). Library preparation for the Illumina MiSeq platform was performed by amplification of the V3-V4 region of the bacterial 16S ribosomal DNA gene using
C. Adapter and barcode sequences for dual indices were used as described by Illumina. PCR clean up steps were performed with QIAquick 96-PCR Clean up kit (Qiagen, Germany), and library quantification was performed using a KAPA Library Quantification Kit for Illumina platforms (KAPA Biosystems, MA, USA). An Experion Automated Gel Electrophoresis System (Bio-Rad, CA, USA) was used to measure the DNA concentration and purity of the pooled libraries. The 16S libraries were sequenced at Novagene (Beijing, China) and the SBP sequencing Core.
16S sequencing data processing. The original FASTQ files from Illumina 250 basepair paired-end sequencing of the samples were processed using a novel 16S amplicon sequencing pipeline HiMap (http://github.com/taolonglab/himap; BioRxiv 565572). The output of HiMap is Operational Strain Unit (OSU) which contains one or more bacterial strains that best match the 16S sequence and cannot be further distinguished. The percentage similarity between the 16S sequence and the aligned region of 16S rRNA genes of the strains in the OSU is indicated. OSUs mapped to the same strains are grouped together (adding read counts) if percentage similarities are within 3%. Read counts are converted into relative abundance as described in HiMap. Log 10-transformed relative abundances were used for comparisons between samples under different experimental conditions.

[4] = system: MC-38 mouse colorectal cancer cells; assay: Flow cytometry of tumor-infiltrating immune cells in MC-38 tumors; assay type: in vivo, C57BL/6 mice
Method: (§6) Tumor digestion. Tumors were excised, minced, and digested with 1 mg/ml collagenase D (Roche) and 100 μg/ml DNase I (Sigma) at 37° C. for 1 h. Digests were then passed through a 70-μm cell strainer to generate a single-cell suspension. The cells were washed twice with PBS containing 2 mM EDTA, and then stained for flow cytometry.
(§7) Flow cytometry. Tumor-derived single-cell suspensions were washed twice with FACS staining buffer, fixed for 15 min with 1% formaldehyde in PBS, washed twice, and resuspended in FACS staining buffer. For intracellular cytokine staining, cells were resuspended in complete RPMI-1640 (containing 10 mM HEPES, 1% non-essential amino acids and L-glutamine, 1 mM sodium pyruvate, 10% heat-inactivated fetal bovine serum (FBS), and antibiotics) supplemented with 50 U/mL IL-2 (NCI), […] brefeldin A (BFA, Sigma), and incubated with phorbol myristate acetate (10 ng/ml) and ionomycin (0.5 μg/ml) at 37° C. The cells were then fixed and permeabilized using a Cytofix/Cytoperm Kit (BD Biosciences) before staining. Antibodies to the following proteins were used: CD45.2 (104), CD8a (53-6.7), CD4 (GK1.5), CD44 (IM7), TNF-α (MP6-XT22), IFN-γ (XMG1.2), CD11c (N418), CD11b (M1/70), MHC class II (M5/114.15.2), PDCA (129c1), and B220 (RA3-6B2) from BioLegend, and antibodies to IL-2 (JES6-5H4) and MHC class I (AF6-88.5.5.3) from eBioscience. All data were collected on an LSRFortessa (BD Biosciences) and analyzed using FlowJo Software (Tree Star).
(§8) MC-38 mouse colorectal cancer cells (1×10^6) were inoculated, and diets were continued after inoculation.

Yumm1.5 tumors [5] = assay: Flow cytometry of tumor-infiltrating immune cells in Yumm1.5 tumors; assay type: in vivo, C57BL/6 mice; details: 20 days following tumor inoculation
Source text: as §1, §6, §7

[6] = system: MC-38 mouse colorectal cancer cells; assay: Growth of MC-38 colorectal cancer tumors in prebiotic-fed mice; assay type: in vivo, C57BL/6 mice; details: 3% mucin in drinking water or 15% inulin diet from two weeks prior to inoculation
Source text: as §8

Compound | N-Ras mutant tumor growth ([1]; MEKi (PD325901) 10 mg/kg daily by gavage, alone or with prebiotic) | control of N-Ras mutant tumors ([1]; in the absence of MEKi, mucin 3% in water or inulin 15% in chow) | intrinsic resistance of MaN-Ras melanoma cells to MEKi ([1]; inulin-fed mice treated with MEKi) | expression of multiple pro-inflammatory mediators in CD8+ T cells (CD8+ T cells) | levels of NOD2, IL-6 and CXCL2 mRNA in intestinal epithelial cells [2] | melanoma tumor growth (Yumm1.5 tumors [3]) | Bifidobacterium spp. (Bifidobacterium spp.) | relative abundance of Bacteroides spp. (Bacteroides spp.) | phylotype group related to Parasutterella excrementihominis (gut microbiota; in the absence of MEKi) | taxa increased in relative abundance (gut microbiota; in the absence of MEKi) | Akkermansia muciniphila (gut microbiota; inulin+MEKi treated mice compared to inulin alone) | CD4+ or CD8+ T cells, CD45+ cells, cytokine production, DCs and DC subsets in tumors [4] | anti-tumor immune responses, MHC class II and I expression on DCs [4] | MHC class I and MHC class II on tumor-resident DCs (Yumm1.5 tumors [5]) | dendritic cell subsets including pDCs and CD8a+ conventional DCs in tumors (Yumm1.5 tumors [5]) | effector (CD44hi) CD4+ and CD8+ T cells, and CD45+ cells in tumors (Yumm1.5 tumors [5]; compared to control mice) | growth of colon cancer MC-38 tumors [6]
O=C(NOC[C@H](O)CO)c1ccc(F)c(F)c1Nc1ccc(I)cc1F [MEKi, PD325901, reference compound] | effectively controlled tumor growth |  |  |  |  |  |  |  |  |  |  |  |  |  |  |  | 
inulin |  | modestly controlled | delayed | increased expression | increased | attenuated | strong increase | increased | notable increase | primarily increased the relative abundance of taxa mapped in or near Clostridium cluster XIVa | robustly enriched | No differences | enhanced | higher levels | increased | enrichment | attenuated

Reference: patent US20220370553A1, “PREBIOTIC-INDUCED ANTI-TUMOR IMMUNITY” (Sanford Burnham Prebys Medical Discovery Institute, priority 2019, published 2022)
